From ChEMBL document CHEMBL4823296, “NMR-Guided Design of Potent and Selective EphA4 Agonistic Ligands” (J Med Chem, 2021)
Non-standard residues stand in square brackets, D forms with d. Residues, ends and D or L forms follow the SMILES beside them. *: point of attachment. Phe(4-(2-MeO-Ph)) = COc1ccccc1-c1ccc(C[C@H](N)C(=O)O)cc1; Cyclohexanoyl(1S,3S-3-NH2) = N[C@H]1CCC[C@H](C(=O)*)C1; Trp(5-OH) = N[C@@H](Cc1c[nH]c2ccc(O)cc12)C(=O)O; NHPh(4-CH2-morpholino) = c1cc(N*)ccc1CN1CCOCC1; Bip = N[C@@H](Cc1ccc(-c2ccccc2)cc1)C(=O)O; 2Nal = N[C@@H](Cc1ccc2ccccc2c1)C(=O)O; hArg = N=C(N)NCCCC[C@H](N)C(=O)O; NHPh = c1ccc(N*)cc1; GABA = NCCCC(=O)O; X1 = Oc1ccccc1CN*; X3 = Oc1cccnc1N*

How the values were obtained:
Ephrin type-A receptor 4 [1] = target: T1, Ephrin type-A receptor 4 (Homo sapiens, UniProt P54764)
T1 sequence (P54764 whole entry, the tested form may be a part): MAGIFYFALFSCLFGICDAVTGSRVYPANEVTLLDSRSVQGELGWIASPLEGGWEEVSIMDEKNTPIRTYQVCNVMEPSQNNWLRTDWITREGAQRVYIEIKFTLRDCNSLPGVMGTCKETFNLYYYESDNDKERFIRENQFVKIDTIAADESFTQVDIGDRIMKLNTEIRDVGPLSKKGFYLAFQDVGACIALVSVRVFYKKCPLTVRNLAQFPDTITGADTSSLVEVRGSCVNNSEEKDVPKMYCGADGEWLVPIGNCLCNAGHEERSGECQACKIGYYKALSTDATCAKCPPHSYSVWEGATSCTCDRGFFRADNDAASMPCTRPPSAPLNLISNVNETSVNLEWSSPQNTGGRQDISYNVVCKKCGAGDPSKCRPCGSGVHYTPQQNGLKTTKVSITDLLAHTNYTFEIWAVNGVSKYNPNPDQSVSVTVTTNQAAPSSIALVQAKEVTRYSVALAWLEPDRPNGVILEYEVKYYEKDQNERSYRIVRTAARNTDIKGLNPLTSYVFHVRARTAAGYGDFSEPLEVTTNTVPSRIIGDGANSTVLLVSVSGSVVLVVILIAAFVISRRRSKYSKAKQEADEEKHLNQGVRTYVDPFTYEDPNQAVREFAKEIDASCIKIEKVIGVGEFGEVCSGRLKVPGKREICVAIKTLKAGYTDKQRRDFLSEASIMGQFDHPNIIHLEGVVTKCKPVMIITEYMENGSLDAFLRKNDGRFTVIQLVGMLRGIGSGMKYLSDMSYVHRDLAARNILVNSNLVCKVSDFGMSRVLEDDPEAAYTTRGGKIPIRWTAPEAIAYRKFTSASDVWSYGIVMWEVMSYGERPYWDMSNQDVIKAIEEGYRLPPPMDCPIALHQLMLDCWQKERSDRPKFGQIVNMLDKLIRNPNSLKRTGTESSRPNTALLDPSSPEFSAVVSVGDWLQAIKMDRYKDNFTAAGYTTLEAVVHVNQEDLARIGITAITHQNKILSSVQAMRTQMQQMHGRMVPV
Description: Binding affinity to N-terminal His tagged EphA4 LBD (unknown origin) (29 to 209 residues) expressed in Rosetta-Gami B(DE3) cells assessed as change in enthalpy by isothermal titration calorimetry

Ephrin type-A receptor 4 [2] = target: T1, Ephrin type-A receptor 4; experiment: Binding affinity to N-terminal His tagged EphA4 LBD (unknown origin) (29 to 209 residues) expressed in Rosetta-Gami B(DE3) cells by isothermal titration calorimetry
Ephrin type-A receptor 4 [3] = target: T1, Ephrin type-A receptor 4; remark: listed apart in the source
Description: Binding affinity to N-terminal His tagged EphA4 LBD (unknown origin) (29 to 209 residues) expressed in Rosetta-Gami B(DE3) cells assessed as change in entropy by isothermal titration calorimetry

[4] = Aqueous solubility of compound; format: physicochemical; details: buffer
Ephrin type-A receptor 2 = Ephrin type-A receptor 2 (Homo sapiens, UniProt P29317); experiment: Binding affinity to N-terminal His tagged EphA2 LBD (27 to 200 residues) (unknown origin) expressed in Origami (DE3) cells by isothermal titration calorimetry
Chain of Ephrin type-A receptor 2 (P29317 whole entry, the tested form may be a part): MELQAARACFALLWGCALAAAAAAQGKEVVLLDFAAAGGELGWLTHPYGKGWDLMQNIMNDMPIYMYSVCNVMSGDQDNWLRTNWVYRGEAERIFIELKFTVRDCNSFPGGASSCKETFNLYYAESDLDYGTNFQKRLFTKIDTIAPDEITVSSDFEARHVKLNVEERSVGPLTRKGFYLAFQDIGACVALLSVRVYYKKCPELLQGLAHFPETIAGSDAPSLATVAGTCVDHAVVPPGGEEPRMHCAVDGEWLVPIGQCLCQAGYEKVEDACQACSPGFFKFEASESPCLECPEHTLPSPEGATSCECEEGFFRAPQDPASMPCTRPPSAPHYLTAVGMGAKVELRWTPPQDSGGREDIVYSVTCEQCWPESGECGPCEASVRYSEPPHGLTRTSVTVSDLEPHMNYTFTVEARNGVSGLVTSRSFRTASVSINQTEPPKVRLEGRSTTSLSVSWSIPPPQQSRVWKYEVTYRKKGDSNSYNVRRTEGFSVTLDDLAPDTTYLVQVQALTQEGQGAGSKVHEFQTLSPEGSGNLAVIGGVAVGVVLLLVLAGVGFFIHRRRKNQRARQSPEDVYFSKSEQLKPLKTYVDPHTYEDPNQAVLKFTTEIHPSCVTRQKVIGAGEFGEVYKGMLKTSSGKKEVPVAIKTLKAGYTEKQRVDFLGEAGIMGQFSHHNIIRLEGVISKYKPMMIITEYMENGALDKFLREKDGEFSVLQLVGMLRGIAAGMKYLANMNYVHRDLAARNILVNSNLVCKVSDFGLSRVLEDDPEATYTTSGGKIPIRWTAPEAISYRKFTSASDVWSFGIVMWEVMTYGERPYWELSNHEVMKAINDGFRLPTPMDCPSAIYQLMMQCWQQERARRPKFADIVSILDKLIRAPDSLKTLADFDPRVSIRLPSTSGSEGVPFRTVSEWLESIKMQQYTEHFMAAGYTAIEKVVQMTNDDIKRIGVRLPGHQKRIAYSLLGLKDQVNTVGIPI

Row | Compound | deltaH (Ephrin type-A receptor 4 [1]) [kcal/mol] | Kd (Ephrin type-A receptor 4 [2]) [nM] | -TdeltaS (Ephrin type-A receptor 4 [3]) [kcal/mol] | solubility [4] [mM] | Kd (Ephrin type-A receptor 2)
1 | N=C(N)NCCCC[C@H](NC(=O)[C@H](Cc1ccc(-c2ccccc2)cc1)NC(=O)[C@H](Cc1c[nH]c2ccc(O)cc12)NC(=O)CCCN)C(=O)NCC(=O)NCc1ccccc1O (H-[GABA][Trp(5-OH)][Bip][hArg]G-X1) | -12 | 258 | 3 | – | –
2 | C[C@H](N)C(=O)N[C@@H](Cc1c[nH]c2ccccc12)C(=O)N[C@@H](Cc1ccc(-c2ccccc2)cc1)C(=O)N[C@@H](CCCCNC(=N)N)C(N)=O (HELM PEPTIDE1{A.W.[O=C([C@H](Cc1ccc(-c2ccccc2)cc1)N[*:1])[*:2]].[N=C(N)NCCCC[C@H](N[*:1])C(=O)[*:2]].[am]}$$$$V2.0) | -9.54 | 3020 | 2.01 | – | –
3 | N=C(N)NCCCC[C@H](NC(=O)[C@H](Cc1ccc(-c2ccccc2)cc1)NC(=O)[C@H](Cc1c[nH]c2ccc(O)cc12)NC(=O)[C@H]1CCC[C@H](N)C1)C(=O)NCC(=O)Nc1ccc(CN2CCOCC2)cc1 ({Cyclohexanoyl(1S,3S-3-NH2)}-[Trp(5-OH)][Bip][hArg]G-{NHPh(4-CH2-morpholino)}) | – | 144 | – | > 50 | Not Active
4 | N=C(N)NCCCC[C@H](NC(=O)[C@H](Cc1ccc(-c2ccccc2)cc1)NC(=O)[C@H](Cc1c[nH]c2ccc(O)cc12)NC(=O)[C@H]1CC[C@H](N)C1)C(N)=O | -8.33 | 1120 | 0.21 | – | –
5 | N=C(N)NCCCC[C@H](NC(=O)[C@H](Cc1ccc(-c2ccccc2)cc1)NC(=O)[C@H](Cc1c[nH]c2ccc(O)cc12)NC(=O)[C@@H]1CC[C@@H](N)C1)C(N)=O | -9.82 | 740 | 1.46 | – | –
6 | N=C(N)NCCCC[C@H](NC(=O)[C@H](Cc1ccc(-c2ccccc2)cc1)NC(=O)[C@H](Cc1c[nH]c2ccc(O)cc12)NC(=O)CCCN)C(=O)NCC(=O)Nc1ccccc1 (H-[GABA][Trp(5-OH)][Bip][hArg]G-NHPh) | -12.3 | 132 | 2.87 | – | –
7 | Cc1ccccc1-c1ccc(C[C@H](NC(=O)[C@H](Cc2c[nH]c3ccc(O)cc23)NC(=O)CCCN)C(=O)N[C@@H](CCCCNC(=N)N)C(N)=O)cc1 | -12.1 | 362 | 3.29 | – | –
8 | COc1ccccc1-c1ccc(C[C@H](NC(=O)[C@H](Cc2c[nH]c3ccc(O)cc23)NC(=O)[C@H]2CCC[C@H](N)C2)C(=O)N[C@@H](CCCCNC(=N)N)C(=O)NCC(=O)Nc2ccc(CN3CCOCC3)cc2)cc1 ({Cyclohexanoyl(1S,3S-3-NH2)}-[Trp(5-OH)][Phe(4-(2-MeO-Ph))][hArg]G-{NHPh(4-CH2-morpholino)}) | – | 77 | – | > 50 | Not Active
9 | N=C(N)NCCCC[C@H](NC(=O)[C@H](Cc1ccc2ccccc2c1)NC(=O)[C@H](Cc1c[nH]c2ccc(O)cc12)NC(=O)CCCN)C(N)=O (H-[GABA][Trp(5-OH)][2Nal][hArg]-NH2) | -8.49 | 5250 | 1.27 | – | –
10 | N=C(N)NCCCC[C@H](NC(=O)[C@H](Cc1ccc(-c2ccccc2)cc1)NC(=O)[C@H](Cc1c[nH]c2ccc(O)cc12)NC(=O)CCCN)C(=O)NCC(=O)Nc1ccc(CN2CCOCC2)cc1 (H-[GABA][Trp(5-OH)][Bip][hArg]G-{NHPh(4-CH2-morpholino)}) | -10.6 | 106 | 1.05 | – | –
11 | N=C(N)NCCCC[C@H](NC(=O)[C@H](Cc1ccc(-c2ccccc2)cc1)NC(=O)[C@H](Cc1c[nH]c2ccc(O)cc12)NC(=O)[C@H]1CCC[C@H](N)C1)C(N)=O | -8.1 | 370 | -0.67 | – | –
12 | Cc1ccc(-c2ccc(C[C@H](NC(=O)[C@H](Cc3c[nH]c4ccc(O)cc34)NC(=O)CCCN)C(=O)N[C@@H](CCCCNC(=N)N)C(N)=O)cc2)cc1 | -10.2 | 708 | 1.77 | – | –
13 | N=C(N)NCCCC[C@H](NC(=O)[C@H](Cc1ccc(-c2ccccc2)cc1)NC(=O)[C@H](Cc1c[nH]c2ccccc12)NC(=O)CCN)C(N)=O (HELM PEPTIDE1{[bAla].W.[O=C([C@H](Cc1ccc(-c2ccccc2)cc1)N[*:1])[*:2]].[N=C(N)NCCCC[C@H](N[*:1])C(=O)[*:2]].[am]}$$$$V2.0) | -11.5 | 2130 | 3.77 | – | –
14 | N=C(N)NCCCC[C@H](NC(=O)[C@H](Cc1ccc(-c2ccccc2)cc1)NC(=O)[C@H](Cc1c[nH]c2ccc(O)cc12)NC(=O)CCCN)C(=O)NCC(=O)Nc1ncccc1O (H-[GABA][Trp(5-OH)][Bip][hArg]G-X3) | -9.48 | 488 | 0.86 | – | –
